From ChEMBL document CHEMBL4732142, “Discovery of the First Druggable GPR52 Antagonist to Treat Huntington's Disease” (J Med Chem, 2021)
Calls of active or inactive are those of the source. No cut-off for these calls is given here.

Experiments:
Mus musculus [1] = species: Mus musculus; assay: Neuroprotective activity in primary striatal neurons from HdhQ140 mouse assessed as rescue of mHTT-induced neuronal survival loss; format: functional, organism-based; settings: Neuron
Mus musculus [2] = assay: Neuroprotective activity in HdhQ140 mouse assessed as decrease in staining intensity of microglia at 0.5 mM, icv by Iba1staining based analysis; format: functional, organism-based
[3] = Drug uptake in mouse brain at 5 mg/kg, iv; format: ADME, organism-based; settings: in vivo, read-out: Drug uptake
[4] = Neuroprotective activity in HdhQ140 mouse model assessed as alleviation of motor deficiency at 5 mg/kg, iv; format: organism-based; settings: in vivo
Mus musculus [5] = assay: Neuroprotective activity in primary striatal neurons from HdhQ140 mouse assessed as rescue of mHTT-induced neuronal survival loss at 5 mg/kg, iv; format: functional, organism-based
Mus musculus [6] = assay: Neuroprotective activity in HdhQ140 mouse assessed as decrease in staining intensity of microglia at 5 mg/kg, iv by Iba1staining based analysis; format: functional, organism-based
[7] = molecular target: G-protein coupled receptor 52 (Mus musculus, UniProt P0C5J4); assay: In-vivo antagonist activity at GPR52 in HdhQ140 mouse model with GPR52 knockdown assessed as decrease in mHTT levels; format: functional
Chain of G-protein coupled receptor 52 (P0C5J4 whole entry): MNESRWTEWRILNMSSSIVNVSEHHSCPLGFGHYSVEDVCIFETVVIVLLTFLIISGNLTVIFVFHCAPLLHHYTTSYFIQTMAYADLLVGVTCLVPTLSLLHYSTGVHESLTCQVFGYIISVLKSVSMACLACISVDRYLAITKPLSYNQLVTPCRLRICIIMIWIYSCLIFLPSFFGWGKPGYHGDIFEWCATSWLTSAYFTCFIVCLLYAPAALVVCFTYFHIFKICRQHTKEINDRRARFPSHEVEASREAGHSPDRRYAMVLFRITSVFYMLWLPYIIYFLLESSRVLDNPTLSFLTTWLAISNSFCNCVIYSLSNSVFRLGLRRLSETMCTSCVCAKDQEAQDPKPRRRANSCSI

| SMILES | Activity (Mus musculus [1]) | Activity (Mus musculus [2]) | concentration [3] [nM] | Activity [4] | Activity (Mus musculus [5]) | Activity (Mus musculus [6]) | IC50 [7] [µM] |
| --- | --- | --- | --- | --- | --- | --- | --- |
| O=C(/C=C/CCc1ccccc1)c1cccs1 | Active | Active | 20 | Toxic | Active | Active | – |
| O=C(/C=C/CCc1ccccc1)CCc1ccccc1 | – | – | – | – | – | – | 6 |
